Reference: ChEMBL document CHEMBL2057096, “Discovery of novel 1,2,4-thiadiazole derivatives as potent, orally active agonists of sphingosine 1-phosphate receptor subtype 1 (S1P(1))” (J Med Chem, 2012)
Values after ≈ are worked out from the molar mass of the structure shown. Active and inactive are the calls of the source. The calls are words filed in the database; no cut-off is given here.

What was measured:
[1] = target: Sphingosine 1-phosphate receptor 3 (Homo sapiens, UniProt Q99500); assay: Agonist activity against S1P3 receptor by cell based FRET assay; assay type: functional
Sphingosine 1-phosphate receptor 3, sequence (Q99500 whole entry): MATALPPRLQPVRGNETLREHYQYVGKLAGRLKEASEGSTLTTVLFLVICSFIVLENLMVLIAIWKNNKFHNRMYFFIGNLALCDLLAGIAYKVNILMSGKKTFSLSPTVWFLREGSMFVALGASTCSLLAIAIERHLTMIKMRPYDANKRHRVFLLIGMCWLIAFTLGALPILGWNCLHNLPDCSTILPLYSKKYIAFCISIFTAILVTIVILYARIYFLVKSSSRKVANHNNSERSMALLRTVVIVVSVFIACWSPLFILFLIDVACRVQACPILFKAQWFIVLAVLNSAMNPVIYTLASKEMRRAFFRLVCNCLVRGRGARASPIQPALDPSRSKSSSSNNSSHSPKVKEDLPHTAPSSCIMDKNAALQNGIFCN

[2] = Oral bioavailability in Sprague-Dawley rat at 2 mg/kg; assay type: ADME, organism-based; conditions: in vivo
[3] = Percentage unbound in human plasma; assay type: ADME, cell-free
[4] = tested on: Mus musculus; assay: Decrease in lymphocyte count in mouse acute lymphopenia model at 1 mg/kg, po after 4 hrs by flow cytometry relative to base line; assay type: functional; parameters: scale not given: the % may be the effect or the level left
[5] = target: Cytochrome P450 2D6 (Homo sapiens, UniProt P10635); assay: Inhibition of CYP2D6; assay type: ADME
Cytochrome P450 2D6, sequence (P10635 whole entry): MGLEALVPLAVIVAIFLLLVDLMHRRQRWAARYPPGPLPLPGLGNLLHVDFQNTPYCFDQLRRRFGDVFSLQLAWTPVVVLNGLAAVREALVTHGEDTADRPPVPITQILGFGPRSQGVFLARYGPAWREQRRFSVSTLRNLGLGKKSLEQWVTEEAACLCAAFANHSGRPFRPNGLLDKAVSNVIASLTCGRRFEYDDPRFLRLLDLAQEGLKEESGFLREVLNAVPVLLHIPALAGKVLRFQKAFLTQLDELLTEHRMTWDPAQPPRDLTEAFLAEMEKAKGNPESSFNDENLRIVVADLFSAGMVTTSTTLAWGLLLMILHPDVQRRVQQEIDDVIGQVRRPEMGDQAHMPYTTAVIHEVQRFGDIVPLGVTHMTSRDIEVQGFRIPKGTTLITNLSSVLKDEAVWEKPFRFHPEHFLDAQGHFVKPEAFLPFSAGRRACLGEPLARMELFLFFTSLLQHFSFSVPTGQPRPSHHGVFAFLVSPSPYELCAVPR

[6] = species: Homo sapiens; assay: Selectivity ratio of EC50 for S1P3 receptor to EC50 for S1P1 receptor
[7] = target: Cytochrome P450 3A4 (Homo sapiens, UniProt P08684); assay: Inhibition of CYP3A4; assay type: ADME
Cytochrome P450 3A4, sequence (P08684 whole entry): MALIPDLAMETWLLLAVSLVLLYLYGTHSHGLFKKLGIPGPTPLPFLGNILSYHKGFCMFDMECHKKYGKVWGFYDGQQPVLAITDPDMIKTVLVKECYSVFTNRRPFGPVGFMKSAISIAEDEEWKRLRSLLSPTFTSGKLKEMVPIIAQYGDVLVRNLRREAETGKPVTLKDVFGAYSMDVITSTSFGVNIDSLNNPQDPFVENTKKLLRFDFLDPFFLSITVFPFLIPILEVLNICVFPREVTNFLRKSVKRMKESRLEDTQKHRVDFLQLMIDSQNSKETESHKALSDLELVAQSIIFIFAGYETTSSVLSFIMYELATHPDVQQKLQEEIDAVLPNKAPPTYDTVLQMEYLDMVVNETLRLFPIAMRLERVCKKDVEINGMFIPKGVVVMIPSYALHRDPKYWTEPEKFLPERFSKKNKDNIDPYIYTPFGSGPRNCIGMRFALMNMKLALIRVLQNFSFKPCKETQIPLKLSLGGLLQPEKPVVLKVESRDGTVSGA

[8] = target: Cytochrome P450 2C9 (Homo sapiens, UniProt P11712); assay: Inhibition of CYP2C9; assay type: ADME
Cytochrome P450 2C9, sequence (P11712 whole entry): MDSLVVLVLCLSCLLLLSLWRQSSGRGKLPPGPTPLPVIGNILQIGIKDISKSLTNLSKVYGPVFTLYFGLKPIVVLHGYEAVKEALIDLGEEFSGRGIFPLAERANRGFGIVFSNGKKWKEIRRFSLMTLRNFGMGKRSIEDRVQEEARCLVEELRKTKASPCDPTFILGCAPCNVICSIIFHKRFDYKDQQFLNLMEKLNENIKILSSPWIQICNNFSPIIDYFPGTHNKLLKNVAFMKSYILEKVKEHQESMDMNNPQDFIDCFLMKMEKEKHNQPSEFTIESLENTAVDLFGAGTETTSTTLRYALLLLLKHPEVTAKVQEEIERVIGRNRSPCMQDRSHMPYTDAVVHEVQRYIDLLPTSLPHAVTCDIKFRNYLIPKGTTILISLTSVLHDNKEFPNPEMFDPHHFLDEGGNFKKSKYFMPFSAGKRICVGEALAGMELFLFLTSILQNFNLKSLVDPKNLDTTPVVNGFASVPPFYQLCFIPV

[9] = Half life in mouse; assay type: ADME, organism-based; conditions: in vivo
[10] = Half life in Sprague-Dawley rat at 1 mg/kg, iv and 2 mg/kg, po; assay type: ADME, organism-based; conditions: in vivo
[11] = target: Sphingosine 1-phosphate receptor 1 (Homo sapiens, UniProt P21453); assay: Agonist activity against S1P1 receptor by cell based FRET assay; assay type: functional
Sphingosine 1-phosphate receptor 1, sequence (P21453 whole entry): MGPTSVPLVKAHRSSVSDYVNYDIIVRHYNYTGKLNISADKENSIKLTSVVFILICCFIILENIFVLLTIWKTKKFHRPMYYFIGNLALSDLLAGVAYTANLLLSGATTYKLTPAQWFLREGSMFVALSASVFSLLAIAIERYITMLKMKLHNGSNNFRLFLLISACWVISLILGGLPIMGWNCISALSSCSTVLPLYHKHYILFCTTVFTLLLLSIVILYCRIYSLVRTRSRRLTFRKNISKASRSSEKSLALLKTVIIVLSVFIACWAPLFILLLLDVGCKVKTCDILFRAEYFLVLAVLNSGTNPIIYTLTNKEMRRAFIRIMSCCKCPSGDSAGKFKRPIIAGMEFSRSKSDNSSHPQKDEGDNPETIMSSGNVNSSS

[12] = Stability of the compound assessed as glutathione adduct formation; assay type: physicochemical
[13] = Oral bioavailability in mouse; assay type: ADME, organism-based; conditions: in vivo
[14] = Ratio of drug level in brain to blood in C57BL/6 mouse at 2 mg/kg, ip after 1 hr; assay type: ADME, organism-based; parameters: dose 2 mg/kg, route intraperitoneal
[15] = target: T1, Cytochrome P450 1A2 (Homo sapiens, UniProt P05177); assay: Inhibition of CYP1A2; assay type: ADME
T1 sequence (P05177 whole entry): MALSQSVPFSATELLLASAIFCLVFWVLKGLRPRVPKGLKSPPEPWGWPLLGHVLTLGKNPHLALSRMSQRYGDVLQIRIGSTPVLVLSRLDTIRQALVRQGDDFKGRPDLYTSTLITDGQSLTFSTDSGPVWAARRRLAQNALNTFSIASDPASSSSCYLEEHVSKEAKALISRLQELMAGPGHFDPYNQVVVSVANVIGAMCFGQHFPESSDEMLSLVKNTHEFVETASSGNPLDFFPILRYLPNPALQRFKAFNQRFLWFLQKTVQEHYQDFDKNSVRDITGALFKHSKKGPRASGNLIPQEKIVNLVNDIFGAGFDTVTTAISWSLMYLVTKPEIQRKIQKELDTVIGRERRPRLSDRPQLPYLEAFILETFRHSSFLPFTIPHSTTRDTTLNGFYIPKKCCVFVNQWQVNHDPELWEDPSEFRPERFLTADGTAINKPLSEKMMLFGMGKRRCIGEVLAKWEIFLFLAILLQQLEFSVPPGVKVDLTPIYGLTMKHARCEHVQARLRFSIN

[16] = Ratio of drug level in brain to blood in C57BL/6 mouse at 2 mg/kg, ip after 4 hrs; assay type: ADME, organism-based; parameters: dose 2 mg/kg, route intraperitoneal
[17] = target: Cytochrome P450 2C19 (Homo sapiens, UniProt P33261); assay: Inhibition of CYP2C19; assay type: ADME
Cytochrome P450 2C19, sequence (P33261 whole entry): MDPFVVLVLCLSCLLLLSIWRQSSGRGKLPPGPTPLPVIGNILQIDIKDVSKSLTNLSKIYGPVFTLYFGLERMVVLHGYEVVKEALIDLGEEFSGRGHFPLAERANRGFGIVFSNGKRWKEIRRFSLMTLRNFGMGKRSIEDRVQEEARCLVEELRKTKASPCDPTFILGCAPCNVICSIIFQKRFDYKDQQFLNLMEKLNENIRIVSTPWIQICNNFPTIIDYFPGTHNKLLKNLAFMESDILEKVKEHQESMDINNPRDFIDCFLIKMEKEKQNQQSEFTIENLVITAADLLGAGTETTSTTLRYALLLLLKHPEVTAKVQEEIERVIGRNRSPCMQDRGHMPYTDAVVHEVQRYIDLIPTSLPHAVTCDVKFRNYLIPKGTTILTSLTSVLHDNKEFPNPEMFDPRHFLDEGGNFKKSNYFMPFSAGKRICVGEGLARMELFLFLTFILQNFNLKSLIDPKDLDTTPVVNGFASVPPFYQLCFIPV

[18] = tested on: Mus musculus; assay: Decrease in lymphocyte count in mouse acute lymphopenia model at 1 mg/kg, po after 24 hrs by flow cytometry relative to base line; assay type: functional; parameters: scale not given: the % may be the effect or the level left
[19] = tested on: Rattus norvegicus; assay: Antiinflammatory activity in rat assessed as decrease in lymphocyte count at 1 mg/kg, po qd for 7 days relative to base line; assay type: functional; parameters: scale not given: the % may be the effect or the level left
[20] = species: Rattus norvegicus; assay: Decrease in lymphocyte count in rat; assay type: functional, organism-based
[21] = species: Rattus norvegicus; assay: Decrease in lymphocyte count in rat after 60 hrs; assay type: functional, organism-based
[22] = tested on: Rattus norvegicus; assay: Antiinflammatory activity in rat assessed as decrease in lymphocyte count at 1 mg/kg, po qd for 7 days measured after 3 days of last post dose relative to control; assay type: functional; parameters: scale not given: the % may be the effect or the level left
[23] = Permeability of the compound; assay type: ADME; conditions: not told; read-out: permeability
[24] = tested on: Mus musculus; assay: Antiinflammatory activity in C57BL/6 mouse EAE model assessed as decrease in clinical symptoms at 1 mg/kg, po administered qd after 10 days post immunization; assay type: functional, organism-based; parameters: dose 1 mg/kg
[25] = Solubility of the compound; assay type: physicochemical
[26] = AUC (0 to 24 hrs) in mouse; assay type: ADME, organism-based; parameters: time < 24 hr; conditions: plasma
[27] = Percentage unbound in rat plasma; assay type: ADME, cell-free

SMILES	EC50 [1]	fraction unbound [3]	Activity [4]	IC50 [5]	IC50 [7]	IC50 [8]	half-life [9]	EC50 [11]	bioavailability [13]	Kp at 1 h [14]	IC50 [15]	Kp at 4 h [16]	IC50 [17]	Activity [18]	Papp [23]	Activity [24]	solubility [25]	AUC(0-t) at 24 h [26]	also measured
CCc1c(CCN2CCC(C(=O)O)CC2)cccc1-c1nsc(-c2ccc(OC(C)C)c(Cl)c2)n1	> 3.16 µM	0.0045	16%	> 10 µM	> 10 µM	> 10 µM	936 min	0.158 nM	40%	0.52	> 10 µM	1.48	> 10 µM	40%	–	–	–	–	bioavailability [2]: 70%; Ratio EC50 [6]: > 1000; half-life [10]: 1660 min; Stability [12]: Stable
CCc1c(CCN2CCC(C(=O)O)CC2)cccc1-c1nsc(-c2ccc(CC(C)C)c(C#N)c2)n1	> 3.16 µM	0.0064	23%	> 10 µM	> 10 µM	> 10 µM	318 min	0.794 nM	45%	0.23	> 10 µM	0.65	> 10 µM	72%	–	–	–	–	Activity [19]: 20%; bioavailability [2]: 50%; Ratio EC50 [6]: > 1000; half-life [10]: 372 min; Activity [20]: Dose-dependent effect; IC50 [20]: 0.012 µg/mL (≈ 0.0239 µM); Stability [12]: Stable; Activity [21]: inactive; Activity [22]: 70%
CCc1c(CCCC(=O)O)cccc1-c1nsc(-c2ccc(OC(C)C)c(C#N)c2)n1	> 10 µM	0.0021	22.7%	–	–	5.01 µM	90 min	2.51 nM	87%	0.36	–	0.52	–	87.9%	32 ×10⁻⁶ cm/s	Active	160 µg/mL (≈ 367 µM)	2600 ng·h/mL	–
CCc1c(CCCC(=O)O)cccc1-c1cnc(-c2ccc(OC(C)C)c(C#N)c2)s1	> 10 µM	0.001	15.3%	–	–	3.98 µM	216 min	3.16 nM	100%	0.38	–	0.35	–	62.6%	22 ×10⁻⁶ cm/s	inactive	125 µg/mL (≈ 288 µM)	8340 ng·h/mL	–
CCc1c(CCCC(=O)O)cccc1-c1noc(-c2ccc(OC(C)C)c(C#N)c2)n1	> 10 µM	–	–	> 10 µM	> 10 µM	> 10 µM	–	0.2 nM	–	0.53	> 10 µM	0.68	> 10 µM	–	34.5 ×10⁻⁶ cm/s	–	46 µg/mL (≈ 110 µM)	–	fraction unbound [27]: 0.0004
CCc1c(CCCC(=O)O)cccc1-c1cnc(-c2ccc(OC(C)C)c(C#N)c2)nc1	> 10 µM	0.0019	34.9%	6.31 µM	–	–	480 min	1 nM	78%	0.47	–	0.48	–	103.2%	19 ×10⁻⁶ cm/s	Active	161 µg/mL (≈ 375 µM)	11500 ng·h/mL	–
CCc1c(CCCC(=O)O)cccc1-c1nnc(-c2ccc(OC(C)C)c(C#N)c2)s1	> 10 µM	0.0051	37.9%	> 10 µM	> 10 µM	> 10 µM	228 min	1.26 nM	100%	0.21	> 10 µM	0.19	–	43.6%	23 ×10⁻⁶ cm/s	inactive	256 µg/mL (≈ 588 µM)	5940 ng·h/mL	–
